US4670433A, “Oxadiazolyl imidazobenzodiazepine derivatives pharmaceutical compositions thereof, and method of treating therewith” (A/S Ferrosan, priority 1985, dated 1987)

Assays:
benzodiazepine receptors [1] = assay: in vivo displacement of 3H-flunitrazepam from benzodiazepine receptors in living mouse brain; conditions: dose reducing specific 3H-flunitrazepam binding to 50% of control; mice, usually subcutaneously, 15 min before 3H-flunitrazepam i.v., killed after a further 20 min, forebrain membranes
Method: (§1) The pharmaceutical potency of the compounds of the present invention is evidenced by determining their capability for displacing radioactively-labelled flunitrazepam and the imidazobenzodiazepine ^3 H-Ro 15-1788 from such benzodiazepine receptors.
(§2) The displacement activity of the compounds of the invention has been determined by determining their IC50 and ED50 values. The IC50 value represents the concentration (nM, 30° C.) which causes a displacement of 50% of the specific binding of ^3 H-Ro 15-1788 in samples comprising a total volume of 1 ml.
The ED50 value represents the dose (mg/kg) of a test substance which causes the specific binding of flunitrazepam to benzodiazepine receptors in a living brain to be reduced to 50% of the control value.
Such an in vivo test is carried out as follows:
Groups of mice are injected with the test substance at different doses and usually subcutaneously. Fifteen minutes later ^3 H-flunitrazepam is given intravenously to the mice and, after a further twenty minutes, the mice are killed. Their forebrain membranes are removed and the radioactivity of these forebrain membranes is measured by scintillation counting. The ED50 value is determined from dose-response curves.

benzodiazepine receptors [2] = assay: displacement of 3H-Ro 15-1788 from benzodiazepine receptors in vitro (rat cerebral cortical membrane homogenate); conditions: 50% displacement of specific binding of 3H-Ro 15-1788, 30° C.
Method: as §1, §2
The displacement test is performed as follows:
750 μl of rat cerebral cortical membrane homogenate was incubated with 100 μl of 5 nM ^3 H-Ro 15-1788 in water at 30° C. Then 100 μl of a solution of the test compound and 50 μl of Krebs buffer was added. After incubation the binding reaction was terminated by filtration through Whatman GF/B glass fibre filters followed by 2×5 ml wash with ice-cold buffer and the radioactivity was measured by scintillation counting. The IC50 was determined by including at least four concentrations of the test compound and log/probit analysis of the resulting data.

SMILES | in vivo ED50 (benzodiazepine receptors [1]) | IC50 (benzodiazepine receptors [2])
CCc1noc(-c2ncn3c2CN(C)C(=O)c2c(C)cccc2-3)n1 | 2.2 mg/kg | 44.8 nM
CCc1noc(-c2ncn3c2C2CCN2C(=O)c2c(C)cccc2-3)n1 (stereo not drawn) | 0.4 mg/kg | 30 nM
Cc1cccc2c1C(=O)N1CCC1c1c(-c3nc(C4CC4)no3)ncn1-2 (stereo not drawn) | 0.2 mg/kg | 23 nM
CCc1nc(-c2ncn3c2CN(C)C(=O)c2c-3cccc2C(F)(F)F)no1 | 0.5 mg/kg | 5.6 nM
COc1ccc2c(c1)C(=O)N(C)Cc1c(-c3nc(C)no3)ncn1-2 | 4.0 mg/kg | –
